Where two headings read alike, the source gives them in different places.
Assays:
Type in all cases: cell-based, human
pERK, NCIH1755 cells = assay: Phospho-ERK inhibition, AlphaLISA p-ERK 1/2, NCIH1755; conditions: Table D-2; for IC50: NCIH1755 (BRAF G469A); for pERK value in parentheses, % inhibition (Ymin): NCIH1755, lowest point of IC50 curve
Description: (§1) All cancer cell lines (A375, A101D, A2058, RKO, HT29 SK-MEL 30, IPC298, HepG2, HCT-116, Lovo, SW620, SW480, NCI-H358, NCI-H2122, Calu-6, NCIH2087, NCIH1755, NCIH1666 and Mewo) were obtained from ATCC and cultured in RPM1-1640 medium (Gibco) supplemented with 5% heat inactivated fetal bovine serum (FBS, Wisent) at 37° C. under 5% CO2. Cells were maintained in T175 flasks (Greiner). They were passaged by removing the culture medium, washing once in 10 mL of room temperature Phosphate Buffered Saline (PBS; Wisent) and incubating at 37° C. with 2 mL of 0.05% Trypsin (Thermo-Fisher). Trypsin was then inactivated by adding complete growth medium and the cells were then replated in a T175 culture dish at the appropriate dilution. All cell lines were routinely tested for mycoplasma contamination. Tissue type and mutational status of each cell line can be found in Table B.
(c) Measurement of Phospho-ERK Inhibition in Cultivated Human Cancer Cell Lines by the AlphaLISA® SureFire® Ultra™ p-ERK 1/2 (Thr2O2/Tyr204)
AlphaLISA® SureFire® Ultra™ p-ERK 1/2 (Thr202/Tyr204) analysis was conducted on cells plated in 100 μL of complete RPMI-1640 growth medium in 96-well flat-bottomed transparent dishes (Costar) at a density indicated in Table C. Cells were maintained overnight at 37° C. under 5% CO2 before treatment with compounds' dilution series for one hour. The cell density in cells/cm^2 corresponds to cell number divided by the area of one well of a 96-well plate (0.143 cm^2).
In a dilution series 100 μL/well of test substance dilution prepared in complete RPMI-1640 growth media was added to the cells. The dilution series is selected so that ten concentrations cover a range from 10 μM to 0.33 nM. If necessary, the initial concentration of 10 μM is increased to 100 μM or lowered to 1 μM (as in the case of A375 and H1666 cells, which are generally more sensitive to the compounds) and further dilution is carried out accordingly. The final concentration of DMSO in the assay is set at 0.5%.
After treatment, media was removed, and cells were lysed in 50 μL of 1× AlphaScreen Ultra Lysis Buffer (Perkin Elmer). The AlphaLISA® SureFire® Ultra™ p-ERK 1/2 (Thr202/Tyr204) (PerkinElmer) reactions were performed with 5 μL of cell lysate according to the manufacturer's specifications in 384-well proxyplates (Perkin Elmer) followed by overnight incubation of the reactions at room temperature in a humidified chamber. After completion of the reactions, the signals were recorded on an EnVision plate reader (Perkin Elmer) using built in AlphaLISA® settings.
The effect of each compound dilution on the pERK signal was expressed in % inhibition and calculated as follows. An internal 100% inhibition control (1 μM trametinib, cat. No. HY-10999; MedChem Express; CAS No. 871700-17-3) was included in each plate and used as a measure of pERK background. First, the value obtained for trametinib was subtracted from each data point. The average of DMSO (vehicle) controls (set as 0% inhibition) was established and used to calculate % inhibition:
(§2) The ability of each compound to inhibit pERK signal was expressed as an IC50 value obtained by plotting the inhibition values for each data point of a dilution series and fitting the obtained curves using a log(agonist) versus response—variable slope (four parameters) function using GraphPadPrism (V7.0) or Dotmatics Screening Ultra platform.
When present, paradoxical pERK induction is inferred from the negative % inhibition values observed in the pERK IC50 curves of a compound.

HT-29 cells = assay: Proliferation inhibition, CellTiter-Glo, HT-29; conditions: Table D-1, HT-29 (BRAF V600E), 3 days, read-out: Prolif. (proliferation EC50)
Description: as §1
(§3) CellTiter-Glo® viability analysis was conducted on cells plated in 100 μL of complete RPMI-1640 growth medium in 96-well flat-bottomed white opaque plates (Greiner or Croning) at a density indicated in Table E (for each CCL, number of cells plated per well of a 96-well plate to perform the CellTiter-Glo® cell viability assay). The cell density in cells/cm^2 would correspond to cell number divided by the area of one well of a 96-well plate (0.32 cm^2). […]
(§4) After 3 days of incubation, the growth media were removed by aspiration and 60 μL of diluted CellTiter-Glo® reagent (10 μL CellTiter-Glo® reagent+50 μL of PBS) was added to each well. […] Luminescence signals were then acquired on a Synergy Neo2 plate reader (Biotek).
(§5) The effect of each compound dilution on the proliferation of cancer cell lines was expressed in % inhibition and calculated as follows. […]
as §2, with “proliferation” for “pERK signal”, “a EC50” for “an IC50”, “effect” for “inhibition”

IPC298 cells = assay: Proliferation inhibition, CellTiter-Glo, IPC298; conditions: Table D-1, IPC298 (NRAS-Q61L), 3 days, read-out: Prolif. (proliferation EC50)
Description: as §1, §3, §4, §5
as §2, with “proliferation” for “pERK signal”, “a EC50” for “an IC50”, “effect” for “inhibition”

Lovo cells = assay: Proliferation inhibition, CellTiter-Glo, Lovo; conditions: Table D-2, Lovo (KRAS-G13D), 3 days, read-out: Prolif. (proliferation EC50)
Description: as §1, §3, §4, §5
as §2, with “proliferation” for “pERK signal”, “a EC50” for “an IC50”, “effect” for “inhibition”

Calu6 cells = assay: Proliferation inhibition, CellTiter-Glo, Calu-6; conditions: Table D-2, Calu6 (KRAS Q61K), 3 days, read-out: Prolif. (proliferation EC50)
Description: as §1, §3, §4, §5
as §2, with “proliferation” for “pERK signal”, “a EC50” for “an IC50”, “effect” for “inhibition”

IC50 (pERK, NCIH1755 cells; Homo sapiens, NCI-H1755) [µM]	EC50 (HT-29 cells; Homo sapiens, 72 h) [µM]	EC50 (Lovo cells; Homo sapiens, 72 h) [µM]	EC50 (Calu6 cells; Homo sapiens, Calu-6, 72 h) [µM]	IC50 (pERK, NCIH1755 cells) [µM]	EC50 (HT-29 cells) [µM]	EC50 (Lovo cells) [µM]	EC50 (Calu6 cells) [µM]	Structure (SMILES)	pERK value in parentheses, % inhibition (Ymin) (pERK, NCIH1755 cells)	EC50 (IPC298 cells; Homo sapiens, IPC-298, 72 h) [µM]	EC50 (IPC298 cells) [µM]
0.03 to 0.3	< 0.3	< 0.3	< 0.3	–	–	–	–	Cc1ccc2c(Nc3cccc(Cl)c3F)nccc2c1NC(=O)c1csc2c(N)ncnc12 [Belvarafenib, reference compound]	(−79) %	< 0.3	–
–	–	–	–	< 0.03	< 0.3	< 0.3	< 0.3	Cc1c(F)cccc1S(=O)(=O)Nc1ccc(F)c(Nc2ncnc3sc(-n4cc(C(=O)N5C6CCC5CN(C)C6)c5ccccc54)nc23)c1F [Example 44]	(−9) %	–	< 0.3
–	–	–	–	< 0.03	< 0.3	< 0.3	< 0.3	N#CC1(c2cccc3c2ncn3-c2nc3c(Nc4c(F)ccc(NS(=O)(=O)c5cccc(Cl)c5Cl)c4F)ncnc3s2)CC1 [Example 122]	(11) %	–	< 0.3
